This is an account of results in ChEMBL document CHEMBL4402556, “Mycobacterium tuberculosis Decaprenylphosphoryl-β-d-ribose Oxidase Inhibitors: Expeditious Reconstruction of Suboptimal Hits into a Series with Potent in Vivo Activity” (J Med Chem, 2020).

What is called pIC50 is −log10 of the IC50, conventionally taken in molar units. The term MIC90 denotes the lowest concentration that inhibits either 90% of growth or 90% of the strains tested, depending on the study.

Converted amounts (≈) assume the structure as drawn.

A short description of data set [1]: Inhibition of Mycobacterium tuberculosis DprE1 expressed in Escherichia coli BL21 (DE3) using farnesylphosphoryl-beta-D-ribose as substrate.
Data set [2] relates to Mycobacterium tuberculosis. The data set can be described thus: Antitubercular activity against wild type Mycobacterium tuberculosis H37Rv ATCC 25618 assessed as bacterial growth inhibition measured after 6 days by resazurin assay. The data set is classed as functional. The conditions noted are these: H37Rv ATCC 25618, 144 h. Background: The colour change of resazurin is a common sign of viable cells or microbes.

The nature of data set [3]: Kinetic aqueous solubility of the compound in phosphate buffer saline at pH 7.4 after 1 hr by CLND method. Format: physicochemical. The conditions noted are these: phosphate buffered saline, read-out: Kinetic_solubility.

With `CC1CCN(C(=O)C2CCN(c3nnc(-n4cccc4)s3)CC2)CC1`, in data set [1], the pIC50 turned out to be 6.3. For the same molecule, the MIC90 in data set [2] was found to be 20.8 µM (≈ 7.48 µg/mL). Also, the solubility kinetic at 1 h in data set [3] amounted to 328 µM (≈ 118 µg/mL).
With `O=C(C1CCN(c2nnc(-n3cccc3)s2)CC1)N1CCC(Cc2ccccc2)CC1`, the pIC50 in data set [1] is 7.3. Besides, the MIC90 in data set [2] came out at 4 µM (≈ 1.74 µg/mL). Moreover, in data set [3], the solubility kinetic at 1 h was below 1 µM.
In data set [1], `CCN(CC)CCC1CCN(C(=O)C2CCN(c3cc(N4CCOCC4)ncn3)CC2)CC1` had a negative-log IC50 (pIC50) below 4. Further, in data set [2], the MIC90 was above 125 µM.
For `CC(C)C1CCN(C(=O)C2CCN(c3cccc(N4CCOCC4)n3)CC2)CC1`, in that order: 5 and above 125 µM.
The matching figures for `CC1CCN(C(=O)C2CCN(c3cc(N4CCCC4)ncn3)CC2)CC1`: 5.9 and 23.4 µM (≈ 8.37 µg/mL).
For `CC(C)C1CCN(C(=O)C2CCN(c3cc(N4CCOCC4)ncn3)CC2)CC1`, in that order: 7.1 and 4 µM (≈ 1.61 µg/mL).
In the case of `O=C(C1CCN(c2ccncn2)CC1)N1CCC(Cc2ccccc2)CC1`, in data set [1], the pIC50 is 4.8. In addition, the MIC90 in data set [2] is above 125 µM.
The matching figures for `CC1CCN(C(=O)C2CCN(c3cc(N(C)C)ncn3)CC2)CC1`: 5 and 125 µM (≈ 41.4 µg/mL).
`c1nc(N2CCCCC2)cc(N2CCOCC2)n1`: the negative-log IC50 (pIC50) in data set [1] turned out to be 4.1.
Consider `O=C(C1CCN(c2cc(N3CCOCC3)ncn2)CC1)N1CCC(CCN2CCCC2)CC1`, for which the pIC50 in data set [1] was 4.1. In addition, the MIC90 in data set [2] is above 125 µM.
For `O=C(C1CCN(c2cc(N3CCOCC3)ncn2)CC1)N1CCC(Cc2ccccc2)C1` (centres undefined), in that order: 6.9 and 4 µM (≈ 1.74 µg/mL).
For `CC(C)C1CCN(C(=O)C2CCN(c3cc(N4CCOCC4)ccn3)CC2)CC1`, in that order: 5.2 and above 125 µM.
The matching figures for `CN1CCN(c2cc(N3CCC(C(=O)N4CCC(Cc5ccccc5)CC4)CC3)ncn2)CC1`: 4.7 and 125 µM (≈ 57.8 µg/mL).
For `O=C(C1CCN(c2cc(N3CCOCC3)ncn2)CC1)N1CCC(Oc2ccc(Cl)cc2)CC1`, the pIC50 in data set [1] was determined as 7.5. For the same molecule, the MIC90 in data set [2] is 1.5 µM (≈ 0.729 µg/mL).
The matching figures for `CC(C)C1CCN(C(=O)C2CCN(c3ccnc(N4CCOCC4)c3)CC2)CC1`: 5.1 and above 125 µM.
For the molecule `CC(=O)N1CCC(C(=O)N2CCC(C)CC2)CC1`, the pIC50 in data set [1] was below 3.
As to `O=C(C1CCN(c2cc(N3CCOCC3)ncn2)CC1)N1CCC(O)(Cc2ccccc2)CC1`, the pIC50 in data set [1] was 5.8. Also, the MIC90 in data set [2] came out at 10 µM (≈ 4.66 µg/mL).
The matching figures for `O=C(C1CCN(c2cc(N3CCOCC3)ncn2)CC1)N1CCCC(Cc2ccccc2)C1` (centres undefined): 6.2 and 32 µM (≈ 14.4 µg/mL).
For `O=C(C1CCN(c2cc(N3CCOCC3)ncn2)CC1)N1CCC(Nc2ccccc2)CC1`, in that order: 6.4 and 10 µM (≈ 4.51 µg/mL).
In turn, `CC(=O)N1CCC(C(=O)N2CCC(Cc3ccccc3)CC2)CC1` yielded a pIC50 in data set [1] below 4.
Still for that read-out and setting: under `O=c1nc(N2CCOCC2)cc(N2CCCCC2)[nH]1` stands 4.5.
In data set [1], `O=C(C1CCN(c2cc(N3CCCCC3)ncn2)CC1)N1CCC(Cc2ccccc2)CC1` had a pIC50 of 7.1. Moreover, the MIC90 in data set [2] was determined as 2.5 µM (≈ 1.12 µg/mL). Moreover, the solubility kinetic at 1 h in data set [3] stood at 28 µM (≈ 12.5 µg/mL).
As for `CC(=O)N1CCN(c2cc(N3CCOCC3)ncn2)CC1`, the pIC50 in data set [1] was below 4.
Consider `O=C(C1CCN(c2cc(N3CCOCC3)ncn2)CC1)N1CCC(Oc2ccc(Cl)cc2F)CC1`, for which, in data set [1], the pIC50 amounted to 7.7. Moreover, the MIC90 in data set [2] was 0.5 µM (≈ 0.252 µg/mL).
The molecule `O=C(C1CCN(c2cc(N3CCOCC3)ncn2)CC1)N1CCN(c2ccc(F)cc2)CC1` gave a pIC50 in data set [1] of 6.2. For the same molecule, the MIC90 in data set [2] was 20 µM (≈ 9.09 µg/mL).
As to `CC1CCN(C(=O)C2CCN(c3cc(N4CCCCC4)ncn3)CC2)CC1`, in data set [1], the pIC50 is reported as 6.5. Further, the MIC90 in data set [2] was 15.6 µM (≈ 5.8 µg/mL). Also, the solubility kinetic at 1 h in data set [3] was above 488 µM.
For the molecule `O=C(C1CCN(c2cc(N3CCOCC3)ncn2)CC1)N1CCc2ccccc2C1`, in data set [1], the negative logarithm of the IC50 (pIC50) is 6.5. Moreover, the MIC90 in data set [2] came out at 10 µM (≈ 4.08 µg/mL).
In data set [1], `FC1(F)CCN(c2cc(N3CCOCC3)ncn2)C1` gave a pIC50 of 4.1.
With `O=C(C1CCN(c2ncnc(N3CCOCC3)c2F)CC1)N1CCC(Cc2ccccc2)CC1`, the pIC50 in data set [1] amounted to 7.2. Besides, the MIC90 in data set [2] came to 1.3 µM (≈ 0.608 µg/mL).
For `O=C(C1CCN(c2cc(N3CCOCC3)[nH]c(=O)n2)CC1)N1CCC(Cc2ccccc2)CC1`, in that order: 7.4 and 3 µM (≈ 1.4 µg/mL).
The matching figures for `O=C(C1CCN(c2cc(N3CCOCC3)ncn2)CC1)N1CCC(Cc2cccnc2)CC1`: 7 and 3.3 µM (≈ 1.49 µg/mL).
The matching figures for `Nc1nc(N2CCOCC2)cc(N2CCC(C(=O)N3CCC(Cc4ccccc4)CC3)CC2)n1`: 7.3 and 3.5 µM (≈ 1.63 µg/mL).
The molecule `CC1CCN(C(=O)C2CCN(c3cc(NC4CCCC4)ncn3)CC2)CC1` had a pIC50 in data set [1] of 4.7. Moreover, the MIC90 in data set [2] was above 125 µM.
For `O=C(C1CCN(c2cc(N3CCOCC3)ncn2)CC1)N1CCC(CC2CCCC2)CC1`, in that order: 7.6 and 3 µM (≈ 1.32 µg/mL).
Turning to `c1nc(N2CCOCC2)cc(N2CCC3(CCCO3)CC2)n1`, the negative-log IC50 (pIC50) in data set [1] was determined as 4.1.
Same read-out and setting: next, `CN(C)c1cc(N2CCCCC2)ncn1`: 3.9.
With `O=C(C1CCN(c2cc(N3CCOCC3)ncn2)CC1)N1CCC(Oc2ccccc2)CC1`, the pIC50 in data set [1] is given as 8.1. The MIC90 in data set [2] worked out at 2 µM (≈ 0.903 µg/mL).
Turning to `O=C(c1ccc(F)cc1)N1CCN(C(=O)C2CCN(c3cc(N4CCOCC4)ncn3)CC2)CC1`, the pIC50 in data set [1] is 4.6. Also, in data set [2], the MIC90 is above 80 µM.
The molecule `O=C(C1CCN(c2nccc(N3CCCCC3)n2)CC1)N1CCC(Cc2ccccc2)CC1` displayed a pIC50 in data set [1] of 6.8. Moreover, in data set [2], the MIC90 was 16 µM (≈ 7.16 µg/mL).
In turn, `c1nc(N2CCCCC2)cc(N2CCCCC2)n1` displayed a pIC50 in data set [1] of 4.1.
Same read-out and setting: under `CC1(C)CCCN(c2cc(N3CCOCC3)ncn2)C1` stands 4.6.
For the molecule `O=C(C1CCN(c2cc(N3CCOCC3)ncn2)CC1)N1CCCCC1Cc1ccccc1` (centres undefined), the negative logarithm of the IC50 (pIC50) in data set [1] is listed as 5.4. Moreover, the MIC90 in data set [2] turned out to be 125 µM (≈ 56.2 µg/mL).
The matching figures for `CC1CCN(C(=O)C2CCN(c3cc(N4CCOCC4)ncn3)CC2)CC1`: 6 and 15.6 µM (≈ 5.83 µg/mL).
In data set [1], `c1nc(N2CCCCCC2)cc(N2CCOCC2)n1` displayed a pIC50 below 4.
Turning to `O=C(C1CCN(c2cc(N3CCOCC3)ncn2)CC1)N1CCOC(Cc2ccccc2)C1` (centres undefined), in data set [1], the pIC50 came to 5.2. Besides, the MIC90 in data set [2] was above 125 µM.
The matching figures for `O=C(C1CCN(c2cncc(N3CCOCC3)n2)CC1)N1CCC(Cc2ccccc2)CC1`: 7.4 and 3 µM (≈ 1.35 µg/mL).
`CC(C)N(C)c1cc(N2CCOCC2)ncn1` had a pIC50 in data set [1] below 4.
Molecule `CCC1CCN(C(=O)C2CCN(c3cc(N4CCOCC4)ncn3)CC2)CC1` came in with a pIC50 in data set [1] of 6.8. Moreover, in data set [2], the MIC90 worked out at 8 µM (≈ 3.1 µg/mL).
On to `O=C(C1CCN(c2cc(N3CCOCC3)ncn2)CC1)N1CCC(Oc2ccc(F)cc2F)CC1`, for which, in data set [1], the pIC50 is recorded as 7.5. The MIC90 in data set [2] came out at 1 µM (≈ 0.488 µg/mL).
For `O=C(C1CCN(c2cc(N3CCOCC3)ncn2)CC1)N1CCC(Cc2ccccn2)CC1`, in that order: 6.6 and 8.8 µM (≈ 3.97 µg/mL).
The matching figures for `Cc1ccc(OC2CCN(C(=O)C3CCN(c4cc(N5CCOCC5)ncn4)CC3)CC2)nc1`: 6.2 and 16 µM (≈ 7.47 µg/mL).
